In ChEMBL document CHEMBL1137440, “Kinesin spindle protein (KSP) inhibitors. Part 6: Design and synthesis of 3,5-diaryl-4,5-dihydropyrazole amides as potent inhibitors of the mitotic kinesin KSP” (Bioorg Med Chem Lett, 2007):
Active and inactive are the calls of the source. The rule behind the calls is not given here.

How the values were obtained:
Plasma [1] = assay: Drug level in A2780 cells bearing mouse plasma, po; format: functional
Canis familiaris [2] = species on record: Canis familiaris; assay: Induction of drug-induced QTc prolongation in dog cardiovascular model at less than 10 uM; format: functional, organism-based; conditions: Canis lupus familiaris; Heart
Plasma [3] = assay: Protein binding in human plasma; format: functional, cell-free
Plasma [4] = assay: Protein binding in mouse plasma; format: functional, cell-free
A2780 = assay: Mitotic arrest in A2780 cells bearing mouse at 3 mg/kg after 22 hrs by phospho-Histone immunohistochemistry assay; format: functional, organism-based; set-up: dose 3 mg/kg
Plasma [5] = assay: Drug level in A2780 cell bearing mouse plasma at 3 mg/kg, po; format: functional, organism-based; set-up: dose 3 mg/kg
Canis familiaris [6] = species on record: Canis familiaris; assay: Induction of drug-induced QTc prolongation in dog cardiovascular model at 40 uM; format: functional, organism-based; conditions: Canis lupus familiaris, Heart

SMILES	Cp (Plasma [1])	Activity (Canis familiaris [2])	PPB (Plasma [3])	PPB (Plasma [4])	Activity (A2780)	Cp (Plasma [5])	Activity (Canis familiaris [6])
CC(=O)N1CCN(CCC[C@@]2(c3ccccc3)CC(c3cc(F)ccc3F)=NN2C(C)=O)CC1	56 nM	Active	91%	92%			
CC(=O)N1N=C(c2cc(F)ccc2F)C[C@@]1(C[C@H](F)CN)c1ccccc1					Active	38 nM	inactive
